Tests used:
[1] = cited from earlier work
[2] = oxidized using Oxone; storage at 60° C., also in the absence of air; after three days

| Compound | solubility in organic solvents ([1]; organic solvents) | solubility in water ([1]; water) | stability of the charged molecule / charged electrolytes after storage [2] |
| --- | --- | --- | --- |
| C1=C[CH]([Fe][CH]2C=CC=C2)C=C1 [Ferrocene, bis(η^5-cyclopentadienyl)iron(II)] | readily soluble | sparingly soluble | – |
| ferrocene-bis-sulfonic acid [Example 1] | – | – | irreversible precipitate |

From US12261337B2, “Aqueous electrolyte, redox flow battery and use thereof” (priority 2018, dated 2025)
